# Laboratory results: PMC7497403, “Development of Potent PfCLK3 Inhibitors Based on TCMDC-135051 as a New Class of Antimalarials” (Journal of Medicinal Chemistry, 2020)
# Tests used:
# [1] = target: T1, full-length PfCLK3 recombinant protein (Plasmodium falciparum, UniProt Q8IIL5); experiment: TR-FRET PfCLK3 in vitro kinase assay; assay type: biochemical, P. falciparum; settings: for IC50: TR-FRET, full-length recombinant PfCLK3, ± SEM, n = 3, read-out: PfCLK3 pIC50 (converted)
# T1 sequence (Q8IIL5 1-699): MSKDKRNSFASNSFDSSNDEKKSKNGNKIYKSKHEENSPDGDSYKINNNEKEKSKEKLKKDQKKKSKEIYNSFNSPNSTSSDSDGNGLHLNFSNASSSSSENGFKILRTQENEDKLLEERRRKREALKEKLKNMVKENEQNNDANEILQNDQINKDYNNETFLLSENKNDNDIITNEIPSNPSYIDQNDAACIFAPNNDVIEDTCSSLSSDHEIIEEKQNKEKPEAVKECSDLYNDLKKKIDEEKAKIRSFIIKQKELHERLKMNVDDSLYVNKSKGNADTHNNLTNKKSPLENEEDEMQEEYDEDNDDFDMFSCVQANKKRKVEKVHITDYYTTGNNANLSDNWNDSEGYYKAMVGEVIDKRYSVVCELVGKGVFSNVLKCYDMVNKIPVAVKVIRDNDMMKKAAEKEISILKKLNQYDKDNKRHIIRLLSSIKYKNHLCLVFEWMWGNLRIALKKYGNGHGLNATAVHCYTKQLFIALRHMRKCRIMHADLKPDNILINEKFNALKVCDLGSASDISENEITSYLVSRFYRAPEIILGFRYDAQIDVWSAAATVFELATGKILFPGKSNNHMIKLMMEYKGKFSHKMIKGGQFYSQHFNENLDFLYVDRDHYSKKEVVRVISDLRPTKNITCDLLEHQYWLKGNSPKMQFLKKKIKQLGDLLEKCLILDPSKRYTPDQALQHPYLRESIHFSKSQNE
# Method: First, in a 10 μL reaction volume, 5 μL of twice the required enzyme concentration (50 nM) and 2.5 μL of four times the required substrate concentration mix containing cold ATP, and the serially diluted drugs were mixed in a black 384-plate well plate and incubated at 37 °C for 1 h. The reaction was stopped after incubation by adding the stopping/detection solution (containing 30 mM EDTA in 1× Lance detection buffer and 3 nM Europium-labeled antiphospho-specific antibody) and incubated for another hour at RT before phosphorylation signals were measured using the ClarioStar.
# For each test compound, percent inhibition (response) which was calculated using the formula: [drawing 3] was plotted against the log molar concentration of compound to calculate the IC50 (potency) of each inhibitor molecule and plotted using GraphPad prism software. All experiments were carried out in triplicates, and the data presented were the standard error of the mean (SEM) of three independent experiments run in triplicates.
# PfCLK3 phosphorylation of substrate results in the Europium-labeled antiphospho-specific antibody recognizing the phosphorylated site on the substrate. The Europium donor fluorophore is excited at 320 or 340 nm, and energy is transferred to the ULight acceptor dye on the substrate, which finally results in the emission of light at 665 nm. The level of ULight peptide phosphorylation correlates with the intensity of the emission. For normalization, a no kinase and a no inhibitor reaction wells were included, and all experiments were conducted in triplicates. Drug dilutions, protein concentrations, and incubation times were the same for easy comparison of results.
# [2] = tested on: P. falciparum 3D7; experiment: Parasite growth inhibition (Sybr Green I) in 3D7 parasites; assay type: cell-based; settings: for fold decrease in parasite growth inhibition: 3D7 parasites, relative to TCMDC-135051 (1); for EC50: Plasmodium falciparum, asexual 3D7 (chloroquine-sensitive) P. falciparum, ± SEM, n = 3, read-out: 3D7 pEC50 (converted); for 3D7 ED50: Table 2, asexual 3D7 P. falciparum
# [3] = Microsomal stability; assay type: in vitro ADME; settings: mouse liver microsomes; 1 μM compound
# Method: Compounds were incubated at 37 °C at a concentration of 1 μM with CD1 mouse liver microsomes (GIBCO, Thermo Fisher Scientific) in a suspension of 50 mM potassium phosphate buffer (pH 7.4) with a final protein concentration of 0.5 mg/mL. The reaction was started by the addition of excess NADPH and then quenched at several time points starting from time 0, then at 3, 6, 9, 15, and 30 min addition of acetonitrile to an aliquot of the sample. An internal standard was added to each sample before centrifugation to remove any precipitates before monitoring loss of parent compound by HPLC analysis using Shimadzu LC-20A (Shimadzu, UK). Prism (Graphpad, USA) was used to fit an exponential decay for substrate depletion and subsequently rate constant (k) from the peak area of the parent compound to the internal standard at each time point.
# [4] = tested on: P. falciparum clinical field isolates from The Gambia; experiment: Parasite reduction rate (PRR) assay with clinical isolates; assay type: cell-based; settings: all isolates except GB0020, GB002 and GB0026; at EC50 concentration (18 nM)
Compound,IC50 [1],fold decrease in parasite growth inhibition [2],clint (in vitro intrinsic clearance) [3],other results
"COc1ccc(CN(C)C)cc1-c1cc2c(-c3ccc(C(=O)O)c(C(C)C)c3)ccnc2[nH]1 [analogue 8a, 4-(2-{5-[(Dimethylamino)methyl]-2-methoxyphenyl}-1H-pyrrolo[2,3-b]pyridin-4-yl)-2-(propan-2-yl)benzoic Acid]",31.6 nM,2 fold,2.53 mL/min/g liver,EC50 [2]: 501 nM
"COc1ccc(CN2CCCC2)cc1-c1cc2c(-c3ccc(C(=O)O)c(C(C)C)c3)ccnc2[nH]1 [analogue 8b, 4-(2-{2-Methoxy-5-[(pyrrolidin-1-yl)methyl]phenyl}-1H-pyrrolo[2,3-b]pyridin-4-yl)-2-(propan-2-yl)benzoic Acid]",–,2 fold,1.94 mL/min/g liver,–
"COc1ccc(CN2CCOCC2)cc1-c1cc2c(-c3ccc(C(=O)O)c(C(C)C)c3)ccnc2[nH]1 [analogue 8c, 4-(2-{2-Methoxy-5-[(morpholin-4-yl)methyl]phenyl}-1H-pyrrolo[2,3-b]pyridin-4-yl)-2-(propan-2-yl)benzoic Acid]",10 nM,–,1.60 mL/min/g liver,–
"CCOC(=O)c1ccc(-c2ccnc3[nH]c(-c4cc(CN(CC)CC)ccc4OC)cc23)cc1C(C)C [analogue 9, Ethyl 4-(2-(5-((Diethylamino)methyl)-2-methoxyphenyl)-1H-pyrrolo[2,3-b]pyridin-4-yl)-2-isopropylbenzoate]",–,–,16.06 mL/min/g liver,–
"COc1ccc(CN)cc1-c1cc2c(-c3ccc(C(=O)O)c(C(C)C)c3)ccnc2[nH]1 [analogue 12, 4-{2-[5-(Aminomethyl)-2-methoxyphenyl]-1H-pyrrolo[2,3-b]pyridin-4-yl}-2-(propan-2-yl)benzoic Acid]",–,–,2.92 mL/min/g liver,fold less potent in vitro (PfCLK3) ([1]; relative to TCMDC-135051 (1)): 2 fold
"COc1ccccc1-c1cc2c(-c3ccc(C(=O)O)c(C(C)C)c3)ccnc2[nH]1 [analogue 15, 4-[2-(2-Methoxyphenyl)-1H-pyrrolo[2,3-b]pyridin-4-yl]-2-(propan-2-yl)benzoic Acid]",–,7 fold,2.54 mL/min/g liver,–
"CCN(CC)Cc1ccc(O)c(-c2cc3c(-c4ccc(C(=O)O)c(C(C)C)c4)ccnc3[nH]2)c1 [analogue 19, 4-(2-(5-((Diethylamino)methyl)-2-hydroxyphenyl)-1H-pyrrolo[2,3-b]pyridin-4-yl)-2-isopropylbenzoic Acid]",20 nM,–,1.94 mL/min/g liver,EC50 [2]: 3160 nM
"CCN(CC)Cc1cccc(-c2cc3c(-c4ccc(C(=O)O)c(C(C)C)c4)ccnc3[nH]2)c1 [analogue 23, 4-(2-{3-[(Diethylamino)methyl]phenyl}-1H-pyrrolo[2,3-b]pyridin-4-yl)-2-(propan-2-yl)benzoic Acid]",–,1.5 fold,0.85 mL/min/g liver,–
"CCN(CC)Cc1cccc(-c2cc3c(-c4ccc(C(=O)O)c(C(C)C)c4)ccnc3[nH]2)c1OC [analogue 27, 4-(2-(3-((Diethylamino)methyl)-2-methoxyphenyl)-1H-pyrrolo[2,3-b]pyridin-4-yl)-2-isopropylbenzoic Acid]",20 nM,15 fold,1.65 mL/min/g liver,fold increase in in vitro kinase activity (PfCLK3) ([1]; relative to TCMDC-135051 (1)): 2 fold
"CCN(CC)Cc1ccc(OC)c(-c2cc3c(-c4ccc(C(=O)O)c(C)c4)ccnc3[nH]2)c1 [analogue 28, 4-(2-(5-((Diethylamino)methyl)-2-methoxyphenyl)-1H-pyrrolo[2,3-b]pyridin-4-yl)-2-methylbenzoic Acid]",–,6 fold,1.33 mL/min/g liver,3D7 ED50 [2]: 1185 nM
"CCN(CC)Cc1ccc(OC)c(-c2cc3c(-c4ccc(C(=O)O)cc4)ccnc3[nH]2)c1 [analogue 29, 4-(2-(5-((Diethylamino)methyl)-2-methoxyphenyl)-1H-pyrrolo[2,3-b]pyridin-4-yl)benzoic Acid]",31.6 nM,16 fold,11.01 mL/min/g liver,3D7 ED50 [2]: 3272 nM
"CCN(CC)Cc1ccc(OC)c(-c2cc3c(-c4ccc(-c5nnn[nH]5)c(C(C)C)c4)ccnc3[nH]2)c1 [analogue 30, N-Ethyl-N-(3-(4-(3-isopropyl-4-(1H-tetrazol-5-yl)phenyl)-1H-pyrrolo[2,3-b]pyridin-2-yl)-4-methoxybenzyl)ethanamine]",–,–,2.32 mL/min/g liver,–
"CCN(CC)Cc1ccc(OC)c(-c2cc3c(-c4cccc(C(C)C)c4)ccnc3[nH]2)c1 [analogue 31, N-Ethyl-N-(3-(4-(3-isopropylphenyl)-1H-pyrrolo[2,3-b]pyridin-2-yl)-4-methoxybenzyl)ethanamine]",1000 nM,–,9.54 mL/min/g liver,–
"CCc1nc(N)nc(N)c1-c1ccc(Cl)cc1 [pyrimethamine, reference compound]",–,–,–,reduction in parasitemia (PRR) [4]: at least 70%
